Results from ChEMBL document CHEMBL4879553, “Data for DCP probe BAY1125976” (2021).
One block for each compound: values may come before it. Calls of active or inactive are those of the source. The calls are words filed in the database; no cut-off is given here.

Columns and labels:
[1] = NanoBRET (AKT1); conditions: Homo sapiens
[2] = molecular target: RAC-gamma serine/threonine-protein kinase (Homo sapiens, UniProt Q9Y243); test: NanoBRET (AKT3)
[3] = molecular target: Muscarinic acetylcholine receptor M1 (Homo sapiens, UniProt P11229); test: GPCRScan assay: inhibition of M1; parameters: radioligand conc. used [nm] 0.3 – 1.2, parental cells stable CHO
Sequence of Muscarinic acetylcholine receptor M1 (P11229 whole entry): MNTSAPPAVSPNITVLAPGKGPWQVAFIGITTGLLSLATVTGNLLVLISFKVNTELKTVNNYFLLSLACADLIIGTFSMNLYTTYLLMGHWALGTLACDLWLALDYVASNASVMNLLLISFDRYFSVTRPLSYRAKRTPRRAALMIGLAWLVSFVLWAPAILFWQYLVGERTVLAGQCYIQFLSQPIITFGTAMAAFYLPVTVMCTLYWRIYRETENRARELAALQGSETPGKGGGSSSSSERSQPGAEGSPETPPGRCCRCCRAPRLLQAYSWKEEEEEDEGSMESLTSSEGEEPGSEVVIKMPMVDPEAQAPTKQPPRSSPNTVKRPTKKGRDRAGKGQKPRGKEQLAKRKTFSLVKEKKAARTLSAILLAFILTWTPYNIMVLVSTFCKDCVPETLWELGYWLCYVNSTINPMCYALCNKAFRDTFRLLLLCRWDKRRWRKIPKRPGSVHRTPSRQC

[4] = Mechanistic cell assay: Reduction of the basal levels of AKT phosphorylation in KPL-4 cells at T308; format: cell-based; conditions: Homo sapiens, KPL4
[5] = Mechanistic cell assay: Reduction of the basal levels of AKT phosphorylation in KPL-4 cells at S473; format: cell-based; conditions: Homo sapiens, KPL4
[6] = Mechanistic cell assay: Blocking of the activation of the downstream signaling molecule 4EBP1 by phosphorylation at mTOR substrate T70; parameters: species or system Homo sapiens
[7] = Mechanistic cell assay: Inhibition of activation by phosphorylation (AKT1-S473); conditions: Homo sapiens
[8] = Mechanistic cell assay: Inhibition of activation by phosphorylation (4EBPI-T70); conditions: Homo sapiens
[9] = Mechanistic cell assay: Inhibition of phosphorylation (AKT1-S473); conditions: Homo sapiens
[10] = Mechanistic cell assay: Inhibition of phosphorylation (T308); conditions: Homo sapiens
[11] = Mechanistic cell assay: Inhibition of phosphorylation (4EBPI-T70); conditions: Homo sapiens
[12] = Mechanistic cell assay: inhibition of PRAS40 phosphorylation at T246; conditions: Homo sapiens
[13] = NanoBRET (AKT2); conditions: Homo sapiens
[14] = molecular target: 5-hydroxytryptamine receptor 1A (Homo sapiens) (UniProt P08908); conditions: Compound concentration 10.0 uM
[15] = molecular target: 5-hydroxytryptamine receptor 1B (Homo sapiens) (UniProt P28222); conditions: Compound concentration 10.0 uM
[16] = molecular target: 5-hydroxytryptamine receptor 1D (Homo sapiens) (UniProt P28221); conditions: Compound concentration 10.0 uM
Sequence of 5-hydroxytryptamine receptor 1D (Homo sapiens) (P28221 whole entry): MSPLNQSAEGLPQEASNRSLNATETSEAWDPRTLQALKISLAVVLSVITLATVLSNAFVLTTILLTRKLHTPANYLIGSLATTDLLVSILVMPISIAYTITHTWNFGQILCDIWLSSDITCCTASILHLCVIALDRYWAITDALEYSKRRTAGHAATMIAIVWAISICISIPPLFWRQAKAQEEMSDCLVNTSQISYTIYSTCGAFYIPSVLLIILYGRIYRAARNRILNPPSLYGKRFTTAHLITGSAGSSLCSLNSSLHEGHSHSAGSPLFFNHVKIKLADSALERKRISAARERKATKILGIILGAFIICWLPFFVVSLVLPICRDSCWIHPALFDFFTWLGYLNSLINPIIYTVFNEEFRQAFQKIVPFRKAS

[17] = molecular target: 5-hydroxytryptamine receptor 2A (Homo sapiens) (UniProt P28223); conditions: Compound concentration 10.0 uM
[18] = molecular target: 5-hydroxytryptamine receptor 2B (Homo sapiens) (UniProt P41595); conditions: Compound concentration 10.0 uM
[19] = molecular target: 5-hydroxytryptamine receptor 2C (Homo sapiens) (UniProt P28335); conditions: Compound concentration 10.0 uM
[20] = molecular target: 5-hydroxytryptamine receptor 3A (Homo sapiens) (UniProt P46098); conditions: Compound concentration 10.0 uM
[21] = molecular target: 5-hydroxytryptamine receptor 5A (Homo sapiens) (UniProt P47898); conditions: Compound concentration 10.0 uM
Sequence of 5-hydroxytryptamine receptor 5A (Homo sapiens) (P47898 whole entry): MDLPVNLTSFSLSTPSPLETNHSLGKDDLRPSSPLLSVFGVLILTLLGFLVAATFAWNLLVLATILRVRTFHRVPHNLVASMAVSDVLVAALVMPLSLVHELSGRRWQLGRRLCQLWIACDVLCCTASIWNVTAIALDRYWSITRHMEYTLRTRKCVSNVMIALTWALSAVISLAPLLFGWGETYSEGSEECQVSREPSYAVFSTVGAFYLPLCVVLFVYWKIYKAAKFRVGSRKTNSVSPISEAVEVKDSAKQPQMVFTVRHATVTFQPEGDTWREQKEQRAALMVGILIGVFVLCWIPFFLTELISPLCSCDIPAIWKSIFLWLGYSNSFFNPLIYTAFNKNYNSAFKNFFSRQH

[22] = molecular target: 5-hydroxytryptamine receptor 6 (Homo sapiens) (UniProt P50406); conditions: Compound concentration 10.0 uM
Sequence of 5-hydroxytryptamine receptor 6 (Homo sapiens) (P50406 whole entry): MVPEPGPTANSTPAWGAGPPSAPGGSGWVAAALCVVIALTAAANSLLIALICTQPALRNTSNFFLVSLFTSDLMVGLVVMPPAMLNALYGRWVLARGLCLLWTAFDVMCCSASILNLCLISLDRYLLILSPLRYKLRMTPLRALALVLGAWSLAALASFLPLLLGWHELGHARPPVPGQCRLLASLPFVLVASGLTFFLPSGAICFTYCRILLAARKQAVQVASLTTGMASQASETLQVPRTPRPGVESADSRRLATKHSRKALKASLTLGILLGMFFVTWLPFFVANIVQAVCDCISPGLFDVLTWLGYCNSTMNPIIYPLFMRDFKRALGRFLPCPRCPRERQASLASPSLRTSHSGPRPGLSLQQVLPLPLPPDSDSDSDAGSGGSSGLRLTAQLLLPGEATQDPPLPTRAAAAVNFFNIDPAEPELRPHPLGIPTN

[23] = molecular target: 5-hydroxytryptamine receptor 7 (Homo sapiens) (UniProt P34969); conditions: Compound concentration 10.0 uM
Sequence of 5-hydroxytryptamine receptor 7 (Homo sapiens) (P34969 whole entry): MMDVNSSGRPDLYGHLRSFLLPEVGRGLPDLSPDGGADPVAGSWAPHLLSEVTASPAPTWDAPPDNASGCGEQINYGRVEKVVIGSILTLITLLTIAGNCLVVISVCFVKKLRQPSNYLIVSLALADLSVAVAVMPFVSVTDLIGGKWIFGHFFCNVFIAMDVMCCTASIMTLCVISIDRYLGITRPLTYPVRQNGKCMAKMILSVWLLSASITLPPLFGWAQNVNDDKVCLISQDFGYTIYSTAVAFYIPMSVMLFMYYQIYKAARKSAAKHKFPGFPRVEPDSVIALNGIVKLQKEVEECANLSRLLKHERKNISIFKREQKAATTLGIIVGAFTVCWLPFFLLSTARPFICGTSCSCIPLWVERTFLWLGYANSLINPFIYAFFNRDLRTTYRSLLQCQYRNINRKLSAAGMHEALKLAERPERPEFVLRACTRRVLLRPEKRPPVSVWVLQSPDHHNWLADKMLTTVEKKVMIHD

[24] = molecular target: D(1A) dopamine receptor (Homo sapiens) (UniProt P21728); conditions: Compound concentration 10.0 uM
[25] = molecular target: D(2) dopamine receptor (Homo sapiens) (UniProt P14416); conditions: Compound concentration 10.0 uM
[26] = molecular target: D(3) dopamine receptor (Homo sapiens) (UniProt P35462); conditions: Compound concentration 10.0 uM
[27] = molecular target: D(4) dopamine receptor (Homo sapiens) (UniProt P21917); conditions: Compound concentration 10.0 uM
[28] = molecular target: D(1B) dopamine receptor (Homo sapiens) (UniProt P21918); conditions: Compound concentration 10.0 uM
[29] = molecular target: Sodium-dependent serotonin transporter (Homo sapiens) (UniProt P31645); conditions: Compound concentration 10.0 uM
[30] = molecular target: Sodium-dependent noradrenaline transporter (Homo sapiens) (UniProt P23975); conditions: Compound concentration 10.0 uM
[31] = molecular target: Sodium-dependent dopamine transporter (Homo sapiens) (UniProt Q01959); conditions: Compound concentration 10.0 uM
[32] = molecular target: Mu-type opioid receptor (Homo sapiens) (UniProt P35372); conditions: Compound concentration 10.0 uM
Sequence of Mu-type opioid receptor (Homo sapiens) (P35372 whole entry): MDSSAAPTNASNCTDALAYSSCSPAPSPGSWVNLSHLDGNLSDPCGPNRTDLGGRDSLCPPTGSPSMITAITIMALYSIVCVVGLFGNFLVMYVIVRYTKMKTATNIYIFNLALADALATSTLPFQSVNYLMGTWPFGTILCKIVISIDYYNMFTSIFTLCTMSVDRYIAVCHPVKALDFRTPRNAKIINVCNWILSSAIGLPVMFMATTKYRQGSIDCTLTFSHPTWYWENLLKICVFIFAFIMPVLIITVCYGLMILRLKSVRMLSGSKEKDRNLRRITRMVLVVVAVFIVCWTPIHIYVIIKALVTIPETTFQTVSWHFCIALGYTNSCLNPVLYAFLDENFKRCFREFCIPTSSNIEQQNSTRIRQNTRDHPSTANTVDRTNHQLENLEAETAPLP

[33] = molecular target: Delta-type opioid receptor (Homo sapiens) (UniProt P41143); conditions: Compound concentration 10.0 uM
Sequence of Delta-type opioid receptor (Homo sapiens) (P41143 whole entry): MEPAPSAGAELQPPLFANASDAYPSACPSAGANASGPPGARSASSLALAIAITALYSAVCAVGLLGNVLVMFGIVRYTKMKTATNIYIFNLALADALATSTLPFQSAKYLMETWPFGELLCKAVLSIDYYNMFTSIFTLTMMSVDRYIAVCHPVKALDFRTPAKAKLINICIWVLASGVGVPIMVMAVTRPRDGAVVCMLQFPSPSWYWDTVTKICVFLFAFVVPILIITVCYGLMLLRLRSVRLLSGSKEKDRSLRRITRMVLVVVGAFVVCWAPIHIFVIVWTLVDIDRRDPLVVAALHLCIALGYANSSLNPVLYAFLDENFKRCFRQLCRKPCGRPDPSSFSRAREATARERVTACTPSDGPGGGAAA

[34] = molecular target: Kappa-type opioid receptor (Homo sapiens) (UniProt P41145); conditions: Compound concentration 10.0 uM
Sequence of Kappa-type opioid receptor (Homo sapiens) (P41145 whole entry): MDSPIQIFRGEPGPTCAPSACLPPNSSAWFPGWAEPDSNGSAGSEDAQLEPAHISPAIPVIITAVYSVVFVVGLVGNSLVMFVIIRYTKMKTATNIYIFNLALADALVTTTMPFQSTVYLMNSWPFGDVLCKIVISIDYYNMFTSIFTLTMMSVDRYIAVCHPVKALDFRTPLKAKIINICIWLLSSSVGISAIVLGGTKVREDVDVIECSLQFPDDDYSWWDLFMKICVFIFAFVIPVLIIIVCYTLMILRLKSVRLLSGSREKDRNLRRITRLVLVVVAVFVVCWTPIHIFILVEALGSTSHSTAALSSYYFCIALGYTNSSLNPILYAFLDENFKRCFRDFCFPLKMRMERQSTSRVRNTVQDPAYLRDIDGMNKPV

[35] = molecular target: Histamine H1 receptor (Homo sapiens) (UniProt P35367); conditions: Compound concentration 10.0 uM
[36] = molecular target: Histamine H2 receptor (Homo sapiens) (UniProt P25021); conditions: Compound concentration 10.0 uM
[37] = molecular target: Histamine H3 receptor (Homo sapiens) (UniProt Q9Y5N1); conditions: Compound concentration 10.0 uM
[38] = molecular target: Alpha-1A adrenergic receptor (Homo sapiens) (UniProt P35348); conditions: Compound concentration 10.0 uM
[39] = molecular target: Alpha-1B adrenergic receptor (Homo sapiens) (UniProt P35368); conditions: Compound concentration 10.0 uM
[40] = molecular target: Alpha-2A adrenergic receptor (Homo sapiens) (UniProt P08913); conditions: Compound concentration 10.0 uM
[41] = molecular target: Alpha-2B adrenergic receptor (Homo sapiens) (UniProt P18089); conditions: Compound concentration 10.0 uM
[42] = molecular target: Alpha-2C adrenergic receptor (Homo sapiens) (UniProt P18825); conditions: Compound concentration 10.0 uM
Sequence of Alpha-2C adrenergic receptor (Homo sapiens) (P18825 whole entry): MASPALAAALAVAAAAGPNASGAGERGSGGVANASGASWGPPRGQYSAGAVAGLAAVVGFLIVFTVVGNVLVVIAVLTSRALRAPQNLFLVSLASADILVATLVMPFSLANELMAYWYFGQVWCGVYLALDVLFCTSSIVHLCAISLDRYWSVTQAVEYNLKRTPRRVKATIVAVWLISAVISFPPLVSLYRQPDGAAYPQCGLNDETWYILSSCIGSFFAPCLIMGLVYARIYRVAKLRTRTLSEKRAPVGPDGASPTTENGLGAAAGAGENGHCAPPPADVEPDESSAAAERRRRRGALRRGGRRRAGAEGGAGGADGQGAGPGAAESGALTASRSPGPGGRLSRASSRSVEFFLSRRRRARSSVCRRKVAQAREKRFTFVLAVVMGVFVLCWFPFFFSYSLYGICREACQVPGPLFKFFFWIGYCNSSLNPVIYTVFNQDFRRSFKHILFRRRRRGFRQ

[43] = molecular target: Beta-1 adrenergic receptor (Homo sapiens) (UniProt P08588); conditions: Compound concentration 10.0 uM
[44] = molecular target: Beta-2 adrenergic receptor (Homo sapiens) (UniProt P07550); conditions: Compound concentration 10.0 uM
[45] = molecular target: Muscarinic acetylcholine receptor M1 (Homo sapiens) (UniProt P11229); conditions: Compound concentration 10.0 uM
[46] = molecular target: Muscarinic acetylcholine receptor M2 (Homo sapiens) (UniProt P08172); conditions: Compound concentration 10.0 uM
[47] = molecular target: Muscarinic acetylcholine receptor M3 (Homo sapiens) (UniProt P20309); conditions: Compound concentration 10.0 uM
[48] = molecular target: Muscarinic acetylcholine receptor M4 (Homo sapiens) (UniProt P08173); conditions: Compound concentration 10.0 uM
[49] = molecular target: Muscarinic acetylcholine receptor M5 (Homo sapiens) (UniProt P08912); conditions: Compound concentration 10.0 uM
Sequence of Muscarinic acetylcholine receptor M5 (Homo sapiens) (P08912 whole entry): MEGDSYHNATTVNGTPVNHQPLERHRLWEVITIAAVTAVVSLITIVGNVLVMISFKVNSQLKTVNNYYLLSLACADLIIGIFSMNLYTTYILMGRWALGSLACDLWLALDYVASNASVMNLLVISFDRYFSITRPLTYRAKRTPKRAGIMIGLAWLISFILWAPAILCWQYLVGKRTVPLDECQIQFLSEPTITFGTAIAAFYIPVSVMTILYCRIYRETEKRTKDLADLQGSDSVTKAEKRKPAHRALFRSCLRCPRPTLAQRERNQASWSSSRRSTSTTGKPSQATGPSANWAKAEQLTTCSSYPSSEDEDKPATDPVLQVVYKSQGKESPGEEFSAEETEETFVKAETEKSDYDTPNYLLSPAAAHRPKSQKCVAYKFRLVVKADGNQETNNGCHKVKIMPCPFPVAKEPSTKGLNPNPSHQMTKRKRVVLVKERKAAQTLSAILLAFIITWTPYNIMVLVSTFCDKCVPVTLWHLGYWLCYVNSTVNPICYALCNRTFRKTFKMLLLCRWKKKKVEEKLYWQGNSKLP

[50] = molecular target: Beta-3 adrenergic receptor (Homo sapiens) (UniProt P13945); conditions: Compound concentration 10.0 uM
[51] = molecular target: GABA-A receptor; anion channel (Rattus norvegicus) (UniProt O09028+P15431+P18506+P18508+P19969+P20236+P23574+P23576+P28471+P28473+P30191+P62813+P63079+P63138+Q91ZM7+Q9ES14); conditions: Compound concentration 10.0 uM
Rattus norvegicus = species: Rattus norvegicus; conditions: Compound concentration 10.0 uM
[52] = molecular target: Alpha-1D adrenergic receptor (Homo sapiens) (UniProt P25100); conditions: Compound concentration 10.0 uM
[53] = molecular target: Sigma intracellular receptor 2 (Homo sapiens) (UniProt Q5BJF2); conditions: Compound concentration 10.0 uM
Sequence of Sigma intracellular receptor 2 (Homo sapiens) (Q5BJF2 whole entry): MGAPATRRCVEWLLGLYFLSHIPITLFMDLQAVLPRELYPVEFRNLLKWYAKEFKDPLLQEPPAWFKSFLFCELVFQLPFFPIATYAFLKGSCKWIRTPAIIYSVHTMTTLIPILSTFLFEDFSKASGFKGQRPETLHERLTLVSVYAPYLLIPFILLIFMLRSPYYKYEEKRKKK

[54] = molecular target: Sigma non-opioid intracellular receptor 1 (Homo sapiens) (UniProt Q99720); conditions: Compound concentration 10.0 uM

Sequence of RAC-gamma serine/threonine-protein kinase (Q9Y243 whole entry): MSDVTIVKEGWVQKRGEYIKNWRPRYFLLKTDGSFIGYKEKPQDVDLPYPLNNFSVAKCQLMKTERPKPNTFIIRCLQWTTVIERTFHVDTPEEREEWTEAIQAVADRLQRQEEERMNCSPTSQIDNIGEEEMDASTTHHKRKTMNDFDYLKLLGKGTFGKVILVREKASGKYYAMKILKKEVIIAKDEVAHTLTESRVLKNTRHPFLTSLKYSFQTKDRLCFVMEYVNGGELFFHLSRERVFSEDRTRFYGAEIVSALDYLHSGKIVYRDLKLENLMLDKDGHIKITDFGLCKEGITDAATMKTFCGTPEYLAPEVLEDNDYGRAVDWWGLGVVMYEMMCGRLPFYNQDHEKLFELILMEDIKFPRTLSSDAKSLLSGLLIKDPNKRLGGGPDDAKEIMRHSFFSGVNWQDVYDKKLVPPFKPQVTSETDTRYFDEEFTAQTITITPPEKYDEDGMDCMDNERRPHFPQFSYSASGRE

EC50 [1]: 1300 nM (not active)
IC50 [1]: 6000 nM (not active)
EC50 [2]: > 50000 nM (not active)
Structure (SMILES): NC1(c2ccc(-c3nc4c(O)ccnn4c3-c3ccccc3)cc2)CCC1

Ki ([3]; read-out: Ki): 1450 nM
Ki ([3]; read-out: pKi (converted)): 1350 nM
IC50 [4]: 0.9 nM (active)
IC50 [5]: 1.1 nM (active)
IC50 [6]: 35 nM (active)
IC50 [7]: 35 nM (active)
IC50 [8]: 100 nM (active)
IC50 [9]: 0.8 nM (active)
IC50 [10]: 5.6 nM (active)
IC50 [11]: 35 nM (active)
IC50 [12]: 141 nM (active)
EC50 [1]: 15 nM (active)
IC50 [1]: 2.84 nM (active)
EC50 [13]: 30 nM (active)
IC50 [13]: 10.7 nM (active)
inhibition [14]: 32.7%
inhibition [15]: 10.2%
inhibition [16]: 12.2%
inhibition [17]: 8.08%
inhibition [18]: 13.4%
inhibition [19]: 25.7%
inhibition [20]: 10.8%
inhibition [21]: 9.78%
inhibition [22]: 17.8%
inhibition [23]: 12.9%
inhibition [24]: -3.8%
inhibition [25]: -1.55%
inhibition [26]: 22.6%
inhibition [27]: 7.35%
inhibition [28]: 23.4%
inhibition [29]: 14.8%
inhibition [30]: 47.5%
inhibition [31]: 40%
inhibition [32]: 31.1%
inhibition [33]: 26.9%
inhibition [34]: 25.4%
inhibition [35]: 30.8%
inhibition [36]: 0.95%
inhibition [37]: 14.6%
inhibition [38]: 39.4%
inhibition [39]: -8.97%
inhibition [40]: 6.89%
inhibition [41]: 28.7%
inhibition [42]: 38.9%
inhibition [43]: 16.8%
inhibition [44]: 21.5%
inhibition [45]: 71.9%
inhibition [46]: 11.2%
inhibition [47]: 20.1%
inhibition [48]: 12.4%
inhibition [49]: 1.83%
inhibition [50]: 11.4%
inhibition [51]: 38%
inhibition (Rattus norvegicus): 40.5%
inhibition [52]: 37.8%
inhibition [53]: 39.9%
inhibition [54]: -1.31%
Structure (SMILES): NC(=O)c1ccc2nc(-c3ccc(C4(N)CCC4)cc3)c(-c3ccccc3)n2n1 [BAY-1125976]
